Test results as given in patent publication US20220000860A1, “COMPOUNDS, COMPOSITIONS, AND METHODS FOR TREATING HUMAN IMMUNODEFICIENCY VIRUS” (OYAGEN, INC., priority 2017, published 2022).
Read-outs that look alike come from different tables or passages of the source.

Columns and labels:
IIIB (Subtype B) = assay: PBMC Acute Infection, IIIB; format: cell-based, HIV
Protocol: (§1) PHA-stimulated cells from at least two normal donors were pooled (i.e. mixed together), diluted in fresh medium to a final concentration of 1×10^6 cells/mL, and plated in the interior wells of a 96-well round bottom microplate at 50 μL/well (5×10^4 cells/well). Pooling of mononuclear cells from more than one donor was used to minimize the variability observed between individual donors in quantitative and qualitative differences in HIV infection and overall response to the PHA and IL-2 of primary lymphocyte populations. Each plate contained virus control wells (cells plus virus) and experimental wells (drug plus cells plus virus) of either 00KE_KER2008 (Subtype A), IIIB (Subtype B), or 98US_MSC5016 (Subtype C). Test drug dilutions were prepared at a 2×concentration and 100 μL of each concentration was placed in appropriate wells. Fifty μL of a predetermined dilution of virus stock was placed in each test well (final MOI≅0.1). After this period, cell-free supernatant samples were collected for analysis of reverse transcriptase (RT) activity with an RT assay. […] In the Table below SI50=CC50/EC50 and SI90=CC90/EC90.

98US_MSC5016 (Subtype C) = assay: PBMC Acute Infection, 98US_MSC5016; format: cell-based, HIV
Protocol: as §1

topoisomerase I (TOP1) [1] = molecular target: T1, topoisomerase I (TOP1) (Homo sapiens, UniProt P11387); assay: topoisomerase I inhibition
T1 sequence (P11387 1-765): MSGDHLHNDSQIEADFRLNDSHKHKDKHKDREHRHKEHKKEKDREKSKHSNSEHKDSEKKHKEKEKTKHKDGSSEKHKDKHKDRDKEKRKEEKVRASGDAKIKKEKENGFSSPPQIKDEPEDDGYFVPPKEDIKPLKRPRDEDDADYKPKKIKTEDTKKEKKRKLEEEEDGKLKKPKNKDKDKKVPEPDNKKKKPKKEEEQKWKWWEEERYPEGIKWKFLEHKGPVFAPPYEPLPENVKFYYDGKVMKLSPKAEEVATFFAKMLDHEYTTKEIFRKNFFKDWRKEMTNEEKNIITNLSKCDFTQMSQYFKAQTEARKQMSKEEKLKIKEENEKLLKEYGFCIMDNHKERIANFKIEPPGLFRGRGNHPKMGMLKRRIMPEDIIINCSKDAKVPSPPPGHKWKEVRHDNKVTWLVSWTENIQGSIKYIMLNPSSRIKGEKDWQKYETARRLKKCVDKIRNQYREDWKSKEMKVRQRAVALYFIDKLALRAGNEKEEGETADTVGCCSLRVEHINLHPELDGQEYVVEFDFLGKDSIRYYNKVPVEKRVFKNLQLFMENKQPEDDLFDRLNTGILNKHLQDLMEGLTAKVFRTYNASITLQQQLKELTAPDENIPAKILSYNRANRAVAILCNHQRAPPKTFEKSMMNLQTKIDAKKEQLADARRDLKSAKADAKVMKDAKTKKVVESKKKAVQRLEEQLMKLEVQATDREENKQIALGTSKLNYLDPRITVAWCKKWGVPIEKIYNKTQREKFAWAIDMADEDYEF

[2] = molecular target: T2, pNL4-3 Vif (Vif multimerization) (Human immunodeficiency virus type 1 group M subtype B, UniProt P12504); assay: Vif FqRET Multimerization Assay; format: cell-based, HIV
T2 construct: expressed in transfected cells; host or cells: HEK293T
Text: The quenched fluorescence resonance energy transfer (FqRET) cell-based assay utilized expression of pNL4-3 Vif (accession no. M19921) tagged separately with either a EGFP fluorophore (EGFP-V5-Vif) or a REACh2 quencher (Vif-HA-REACh2) in the pIRES-P vector. The Vif multimerization assay was established through robotic co-transfection of HEK293T (293T) cells with Turbofect (Thermo) and optimized for input plasmid ratio (1:4, fluorophore to quencher) to achieve maximum quench of fluorescent signal. EGFP fluorescence was quantified 24 hours after transfection with a BioTek Synergy4 plate reader (ex=485 nm, em=528 nm) followed by the addition of 0-30 μM compound. The plates were read a second time 24 hours after compound addition. The differential between the first and second read in each well was quantified relative to the DMSO control to determine the change in relative fluorescence units (ΔRFU)
The interaction of 2 molecules of Vif (i.e. dimerization) enables quenching of Enhanced Green Fluorescent Protein (EGFP) signal by Resonance Energy Accepting Chromophore 2 (REACh2), a dark mutant of yellow fluorescent protein that is capable of accepting the EGFP donor fluorescence and quenching its signal without an acceptor signal.

[3] = test system: Vif-dependent APOBEC3G degradation; assay: Vif-Dependent APOBEC3G Degradation Assay; format: cell-based, HIV
Protocol: APOBEC3G-V5-mCherry was stably expressed from the pIRES-P vector in 293T cells under puromycin selection. Fifty ng of plasmid expressing Vif-HA (accession no. AB573087) was transfected into the cells in 384-well format with Turbofect on a liquid handling robot. Four hours after transfection the compounds were added to cells in a range from 0-15 μM. Twenty-four hours after compound addition mCherry fluorescence was read on a BioTek Synergy4 plate reader (ex=587 nm, em=610 nm). Relative fluorescence units (RFU) from compound treated wells were quantified using thresholds set by the −Vif (positive control) and +Vif (negative control).

00KE_KER2008 (Subtype A) = assay: PBMC Acute Infection, 00KE_KER2008; format: cell-based, HIV
Protocol: as §1

PBMCs = assay: PBMC Acute Infection, cytotoxicity (CC50/CC90); format: cell-based
Protocol: as §1

[4] = PBMC Acute Infection, cytotoxicity (CC50/CC90); format: cell-based; settings: human
Protocol: as §1

topoisomerase I (TOP1) [5] = molecular target: T1, topoisomerase I (TOP1); settings: comparison statement; cited from earlier work
[6] = molecular target: T3, recombinant HIV (pNL4-3) heterodimeric (p66/p51) Reverse Transcriptase (Human immunodeficiency virus type 1 group M subtype B, UniProt P12497); assay: reverse transcriptase assay; format: biochemical
T3 construct: purified recombinant HIV (pNL4-3) heterodimeric (p66/p51) Reverse Transcriptase (RT); purchased
Protocol: For the assays listed in Table I, the integrase assay was conducted using the XpressBio HIV-1 Integrase Assay Kit according to the manufacture's protocol. The protease assay was conducted with the Anthranilyl (Abz)-HIV Protease Substrate (Bachem H-2992), a hexapeptide FRET substrate derived from the p24/p15 cleavage site of the viral gag-pol poly-protein, which allows the screening of potential HIV protease inhibitors. 1 mM Abz-Substrate was diluted with Assay Buffer to a working stock of 20 μM. A 50 μM stock HIV-1 protease (received from Sook-kyung Lee (UNC)) was diluted with Assay Buffer (50 mM HEPES, pH 6.8, 150 mM NaCl, and 1% DMSO) to a working stock of 100 nM. 2 μl 100 nM HIV-1 Protease along with 2 uL 20 μM Abz Substrate was added into each well and incubated at room temperature (avoiding light) for 1 hour before being read on an Envision plate reader (Perkin Elmer) excitation at 280 nm, emission at >435 nm. The reverse transcriptase assay utilized purified recombinant HIV (pNL4-3) heterodimeric (p66/p51) Reverse Transcriptase (RT) that was purchased from a commercially available source. The assay was performed in 96-well filter plate, where RT activity was determined by the incorporation of radiolabeled deoxyribonucleotides into the newly synthesized DNA strand. The RT reaction mixture contained in vitro transcribed viral RNA derived from the HIV-1NL4-3 5′-LTR region (position 454 to 652) and primer that is complementary to the primer binding site (PBS, nucleotide residues nucleotides 636 to 652), radiolabeled deoxyribonucleotide, dNTPs and reverse transcriptase. Briefly, the reaction was carried out in a volume of 50 μl containing 50 mM Tris HCl, pH 7.8, 50 mM KCl, 5 mM MgCl2, 1 mM DTT, 50 μM each of dATP, dCTP, dGTP, 50 nM dTTP, 1 μCi of [^3H] dTTP (70-90 Ci/mM) and 5 nM template/primer. The reaction was initiated by the addition of 10 nM RT. For compound screening, serially diluted test articles were added to the reaction followed by the addition of RT. The reaction mixture was incubated at 37° C. for 1 h, and then quenched by the addition of ice-cold trichloroacetic acid (TCA) to the final concentration of 10%. The plate was incubated at 4° C. for 1 h to precipitate the synthesized DNA, then rinsed 3-times with 10% TCA and 1 time with 70% ethanol. After addition of 25 μl scintillation fluid to completely dried wells, radioactivity is counted by MicroBeta scintillation counter. The reduction of radioactivity represents the potency of compound inhibition.

[7] = Human immunodeficiency virus 1, read-out: A3G degradation at
[8] = row of isolate 98US_MSC5016, subtype C
[9] = row of isolate 00KE-KER2008, subtype A
[10] = Human immunodeficiency virus 1, IIIB
[11] = Human immunodeficiency virus 1, PBMC

T2 sequence (P12504 whole entry): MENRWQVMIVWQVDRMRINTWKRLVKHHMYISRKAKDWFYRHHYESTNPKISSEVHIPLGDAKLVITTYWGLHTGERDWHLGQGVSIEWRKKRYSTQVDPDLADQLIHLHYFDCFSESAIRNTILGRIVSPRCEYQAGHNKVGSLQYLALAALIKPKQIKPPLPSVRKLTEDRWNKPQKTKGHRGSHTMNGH

Compound: CC[C@@]1(O)C(=O)NCc2c1cc1n(c2=O)Cc2cc3c(N)cccc3nc2-1 [Compound O5-9A, (S)-10-Amino-4-ethyl-4-hydroxy-1,2-dihydroquinolino[2′,3′:3,4]pyrrolo[1,2-b][2,7]naphthyridine-3,14(4H,12H)-dione]
- EC50 (IIIB (Subtype B); Human immunodeficiency virus 1, isolate IIIB, subtype B, RT activity readout, read-out: EC50): 150 nM
- EC90 (IIIB (Subtype B); Human immunodeficiency virus 1, isolate IIIB, subtype B, RT activity readout, read-out: EC90): 310 nM
- EC50 (98US_MSC5016 (Subtype C); Human immunodeficiency virus 1, PBMC, isolate 98US_MSC5016, subtype C, RT activity readout, read-out: EC50): 60 nM
- EC90 (98US_MSC5016 (Subtype C); Human immunodeficiency virus 1, PBMC, isolate 98US_MSC5016, subtype C, RT activity readout, read-out: EC90): 220 nM
- inhibition of topoisomerase I (TOP1) (result in words) (topoisomerase I (TOP1) [1]): do not inhibit
- EC50 [2]: 3870 nM
- Vif multimerization (result in words) [2]: block
- Vif-dependent A3G degradation (result in words) [3]: block
- EC50 ([3]; Human immunodeficiency virus 1, HEK-293T, 24 h, read-out: EC50, A3G Degradation Assay): 1200 nM
- EC50 [3, 7]: 1000 nM
- EC50 (00KE_KER2008 (Subtype A); Human immunodeficiency virus 1, PBMC, isolate 00KE-KER2008, subtype A, RT activity readout, read-out: EC50): 50 nM
- EC90 (00KE_KER2008 (Subtype A); Human immunodeficiency virus 1, PBMC, isolate 00KE-KER2008, subtype A, RT activity readout, read-out: EC90): 230 nM
- CC90 (PBMCs; [8]): > 100000 nM
- CC90 (PBMCs; row of isolate IIIB, subtype B): > 100000 nM
- CC50 [4, 9]: 9320 nM
- CC90 [4, 9]: > 100000 nM
- CC50 [4, 8]: 9320 nM
- CC50 ([4]; row of isolate IIIB, subtype B): 10000 nM

Compound: CCc1c2c(nc3ccc(OC(=O)N4CCC(N5CCCCC5)CC4)cc13)-c1cc3c(c(=O)n1C2)CNC(=O)[C@]3(O)CC [Irino-L, (S)-4,11-diethyl-4-hydroxy-3,14-dioxo-1,2,3,4,12,14-hexahydroquinolino[2′,3′:3,4]pyrrolo[1,2-b][2,7]naphthyridin-9-yl [1,4′-bipiperidine]-1′-carboxylate]
- EC50 (IIIB (Subtype B); [10]): 2290 nM
- EC90 (IIIB (Subtype B); [10]): 7920 nM
- EC50 (98US_MSC5016 (Subtype C); [11]): 1850 nM
- EC90 (98US_MSC5016 (Subtype C); [11]): 7110 nM
- EC50 [3, 7]: 5000 nM
- EC50 (00KE_KER2008 (Subtype A); [11]): 2260 nM
- EC90 (00KE_KER2008 (Subtype A); [11]): 7710 nM
- CC50 [4, 9]: 17700 nM
- CC90 [4, 9]: 82800 nM

Compound: CC[C@@]1(O)C(=O)OCc2c1cc1n(c2=O)Cc2cc3ccccc3nc2-1 [camptothecin]
- inhibition of topoisomerase I (TOP1) (result in words) (topoisomerase I (TOP1) [5]): inhibit

Compound: Cc1ccnc2c1NC(=O)c1cccnc1N2C1CC1 [nevirapine, reference compound]
- IC50 [6]: 230 nM
